Assay results taken from ChEMBL document CHEMBL1201862, “PubChem BioAssay data set” (2004).
Values belong to the compound of their own block, whether it stands above or below them. Active and inactive are the calls of the source.

Assays:
[1] = biological target: Mu-type opioid receptor (Homo sapiens, UniProt P35372); test: (§1) Counterscreen for agonists of heterodimerization of the mu 1 (OPRM1) and delta 1 (OPRD1) opioid receptors: Luminescence-based cell-based high throughput dose response assay to identify agonists of OPRM1 homodimerization.; type: functional
Chain of Mu-type opioid receptor (P35372 whole entry): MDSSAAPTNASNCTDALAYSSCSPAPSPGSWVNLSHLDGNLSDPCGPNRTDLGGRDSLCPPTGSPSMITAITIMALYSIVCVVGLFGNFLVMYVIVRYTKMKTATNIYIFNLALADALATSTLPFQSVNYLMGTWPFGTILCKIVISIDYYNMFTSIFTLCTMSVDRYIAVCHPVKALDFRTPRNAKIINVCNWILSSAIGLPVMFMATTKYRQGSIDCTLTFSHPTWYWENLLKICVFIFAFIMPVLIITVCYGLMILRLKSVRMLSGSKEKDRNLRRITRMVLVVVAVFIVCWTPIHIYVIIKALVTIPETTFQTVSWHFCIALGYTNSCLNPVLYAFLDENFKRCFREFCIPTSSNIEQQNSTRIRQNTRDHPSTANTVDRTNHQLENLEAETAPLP

[2] = biological target: 5-hydroxytryptamine receptor 5A (Homo sapiens, UniProt P47898); test: Counterscreen for agonists of OPRM1-OPRD1 heterodimerization: luminescence-based cell-based high throughput dose response assay to identify agonists of 5-hydroxytryptamine (serotonin) 5A receptor (HTR5A). [Related pubchem assays (depositor defined):AID504326, AID504355, AID504692, AID504904, AID504905]; type: functional
Chain of 5-hydroxytryptamine receptor 5A (P47898 whole entry): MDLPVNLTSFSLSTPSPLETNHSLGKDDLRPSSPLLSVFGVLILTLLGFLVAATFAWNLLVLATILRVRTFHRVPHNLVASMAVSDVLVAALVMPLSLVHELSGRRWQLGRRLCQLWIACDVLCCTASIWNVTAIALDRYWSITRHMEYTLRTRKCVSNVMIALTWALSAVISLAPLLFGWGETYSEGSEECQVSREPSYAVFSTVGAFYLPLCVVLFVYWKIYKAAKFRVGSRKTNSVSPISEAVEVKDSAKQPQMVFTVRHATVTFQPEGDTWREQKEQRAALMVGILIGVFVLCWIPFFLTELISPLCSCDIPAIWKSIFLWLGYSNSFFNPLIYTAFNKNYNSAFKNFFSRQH

[3] = biological target: T1, DNA repair protein RAD52 homolog (Homo sapiens, UniProt P43351); type: functional, biochemical
T1 sequence (P43351 whole entry): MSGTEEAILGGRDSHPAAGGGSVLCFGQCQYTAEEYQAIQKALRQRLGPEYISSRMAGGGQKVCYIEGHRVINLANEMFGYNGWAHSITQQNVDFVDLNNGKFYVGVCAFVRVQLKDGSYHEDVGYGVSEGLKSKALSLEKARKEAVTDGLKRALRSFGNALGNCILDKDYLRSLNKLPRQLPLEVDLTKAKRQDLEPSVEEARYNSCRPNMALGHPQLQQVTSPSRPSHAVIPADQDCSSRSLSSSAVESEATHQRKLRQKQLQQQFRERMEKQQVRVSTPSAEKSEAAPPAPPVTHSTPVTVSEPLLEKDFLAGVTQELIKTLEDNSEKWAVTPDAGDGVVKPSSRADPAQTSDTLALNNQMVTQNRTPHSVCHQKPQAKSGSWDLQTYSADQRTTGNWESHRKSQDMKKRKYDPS

[4] = biological target: Delta-type opioid receptor (Homo sapiens, UniProt P41143); test: as §1, with “of OPRD1” for “of OPRM1”, “homodimerization. [Related pubchem assays (depositor defined):AID504326, AID504355, AID504692, AID504904, AID504905]” for “homodimerization.”; type: functional
Chain of Delta-type opioid receptor (P41143 whole entry): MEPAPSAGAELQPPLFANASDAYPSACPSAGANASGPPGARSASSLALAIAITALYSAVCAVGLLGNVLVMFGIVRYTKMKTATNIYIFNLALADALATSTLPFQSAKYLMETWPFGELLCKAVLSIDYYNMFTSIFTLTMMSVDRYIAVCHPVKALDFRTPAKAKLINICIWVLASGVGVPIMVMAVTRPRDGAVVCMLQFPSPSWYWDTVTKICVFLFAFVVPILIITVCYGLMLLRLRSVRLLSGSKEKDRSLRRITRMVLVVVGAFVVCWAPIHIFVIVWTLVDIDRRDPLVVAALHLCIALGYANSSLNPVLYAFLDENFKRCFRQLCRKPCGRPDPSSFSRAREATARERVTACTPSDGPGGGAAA

[5] = system: Escherichia coli; test: microbe, parasite or virus in culture
[6] = biological target: Hexokinase-1 (Homo sapiens, UniProt P19367); test: HK1 enzyme inhibition by HKDC1 hits, SAR follow-up, selectivity assay for HKDC1 inhibitor project, biochemical, set 2, resazurin fluorescence coupled readout (AID 588356); type: functional
Chain of Hexokinase-1 (P19367 whole entry): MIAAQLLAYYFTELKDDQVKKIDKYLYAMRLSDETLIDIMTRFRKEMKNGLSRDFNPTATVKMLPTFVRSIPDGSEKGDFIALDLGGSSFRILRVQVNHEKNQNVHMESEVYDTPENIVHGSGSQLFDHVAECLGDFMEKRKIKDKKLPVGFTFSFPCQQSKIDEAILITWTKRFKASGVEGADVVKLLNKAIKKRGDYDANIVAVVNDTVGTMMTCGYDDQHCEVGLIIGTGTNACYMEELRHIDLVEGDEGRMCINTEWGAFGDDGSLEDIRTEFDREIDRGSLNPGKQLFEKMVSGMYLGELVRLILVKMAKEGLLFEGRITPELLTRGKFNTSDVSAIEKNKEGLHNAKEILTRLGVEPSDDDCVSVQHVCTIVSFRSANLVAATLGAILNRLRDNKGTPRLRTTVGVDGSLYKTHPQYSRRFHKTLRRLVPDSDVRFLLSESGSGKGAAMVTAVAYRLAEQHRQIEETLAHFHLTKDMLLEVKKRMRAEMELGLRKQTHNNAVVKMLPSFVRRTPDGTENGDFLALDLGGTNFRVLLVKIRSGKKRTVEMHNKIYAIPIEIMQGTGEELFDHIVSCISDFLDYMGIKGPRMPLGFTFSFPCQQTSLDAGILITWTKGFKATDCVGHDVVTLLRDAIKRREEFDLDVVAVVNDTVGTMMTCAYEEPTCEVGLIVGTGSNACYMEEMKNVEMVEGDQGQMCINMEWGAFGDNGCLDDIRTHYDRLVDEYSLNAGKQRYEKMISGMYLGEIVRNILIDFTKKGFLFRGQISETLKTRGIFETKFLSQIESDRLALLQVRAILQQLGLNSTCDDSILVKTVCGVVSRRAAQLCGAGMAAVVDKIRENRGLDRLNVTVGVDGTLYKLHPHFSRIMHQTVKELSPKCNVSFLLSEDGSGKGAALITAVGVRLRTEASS

[7] = biological target: T2, Hexokinase HKDC1 (Homo sapiens, UniProt Q2TB90); test: HKDC1 hexokinase inhibitors, SAR follow-up, biochemical, set 2 (AID 588355); type: functional
T2 sequence (Q2TB90 whole entry): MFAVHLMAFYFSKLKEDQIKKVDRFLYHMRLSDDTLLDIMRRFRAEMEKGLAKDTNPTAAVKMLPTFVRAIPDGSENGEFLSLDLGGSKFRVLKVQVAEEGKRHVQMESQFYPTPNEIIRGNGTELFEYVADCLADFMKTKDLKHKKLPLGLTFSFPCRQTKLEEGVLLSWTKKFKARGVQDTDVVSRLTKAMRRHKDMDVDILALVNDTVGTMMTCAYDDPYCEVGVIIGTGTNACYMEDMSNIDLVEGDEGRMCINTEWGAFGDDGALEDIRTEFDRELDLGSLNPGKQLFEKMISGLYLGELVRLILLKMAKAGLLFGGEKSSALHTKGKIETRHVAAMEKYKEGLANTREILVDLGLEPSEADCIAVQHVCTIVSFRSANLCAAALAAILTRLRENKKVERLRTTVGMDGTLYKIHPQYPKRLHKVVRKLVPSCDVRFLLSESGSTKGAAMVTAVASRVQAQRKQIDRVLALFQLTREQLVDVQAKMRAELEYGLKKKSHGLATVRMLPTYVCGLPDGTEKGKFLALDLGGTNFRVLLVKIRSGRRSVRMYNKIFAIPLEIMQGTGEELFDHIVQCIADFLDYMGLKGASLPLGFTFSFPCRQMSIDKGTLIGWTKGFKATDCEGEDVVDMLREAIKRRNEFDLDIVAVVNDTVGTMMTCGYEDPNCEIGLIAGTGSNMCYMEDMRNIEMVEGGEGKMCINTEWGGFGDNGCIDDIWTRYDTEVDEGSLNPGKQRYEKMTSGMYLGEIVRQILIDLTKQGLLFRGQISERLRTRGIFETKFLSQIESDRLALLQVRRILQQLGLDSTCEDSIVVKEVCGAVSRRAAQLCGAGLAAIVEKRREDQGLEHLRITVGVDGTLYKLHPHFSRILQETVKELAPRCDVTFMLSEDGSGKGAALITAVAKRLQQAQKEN

[8] = biological target: Voltage-gated inwardly rectifying potassium channel KCNH2 (Homo sapiens, UniProt Q12809); conditions: Potency;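 note: confirmatory quantitative high-throughput screen measuring inhibition of hERG channel activity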
Chain of Voltage-gated inwardly rectifying potassium channel KCNH2 (Q12809 whole entry): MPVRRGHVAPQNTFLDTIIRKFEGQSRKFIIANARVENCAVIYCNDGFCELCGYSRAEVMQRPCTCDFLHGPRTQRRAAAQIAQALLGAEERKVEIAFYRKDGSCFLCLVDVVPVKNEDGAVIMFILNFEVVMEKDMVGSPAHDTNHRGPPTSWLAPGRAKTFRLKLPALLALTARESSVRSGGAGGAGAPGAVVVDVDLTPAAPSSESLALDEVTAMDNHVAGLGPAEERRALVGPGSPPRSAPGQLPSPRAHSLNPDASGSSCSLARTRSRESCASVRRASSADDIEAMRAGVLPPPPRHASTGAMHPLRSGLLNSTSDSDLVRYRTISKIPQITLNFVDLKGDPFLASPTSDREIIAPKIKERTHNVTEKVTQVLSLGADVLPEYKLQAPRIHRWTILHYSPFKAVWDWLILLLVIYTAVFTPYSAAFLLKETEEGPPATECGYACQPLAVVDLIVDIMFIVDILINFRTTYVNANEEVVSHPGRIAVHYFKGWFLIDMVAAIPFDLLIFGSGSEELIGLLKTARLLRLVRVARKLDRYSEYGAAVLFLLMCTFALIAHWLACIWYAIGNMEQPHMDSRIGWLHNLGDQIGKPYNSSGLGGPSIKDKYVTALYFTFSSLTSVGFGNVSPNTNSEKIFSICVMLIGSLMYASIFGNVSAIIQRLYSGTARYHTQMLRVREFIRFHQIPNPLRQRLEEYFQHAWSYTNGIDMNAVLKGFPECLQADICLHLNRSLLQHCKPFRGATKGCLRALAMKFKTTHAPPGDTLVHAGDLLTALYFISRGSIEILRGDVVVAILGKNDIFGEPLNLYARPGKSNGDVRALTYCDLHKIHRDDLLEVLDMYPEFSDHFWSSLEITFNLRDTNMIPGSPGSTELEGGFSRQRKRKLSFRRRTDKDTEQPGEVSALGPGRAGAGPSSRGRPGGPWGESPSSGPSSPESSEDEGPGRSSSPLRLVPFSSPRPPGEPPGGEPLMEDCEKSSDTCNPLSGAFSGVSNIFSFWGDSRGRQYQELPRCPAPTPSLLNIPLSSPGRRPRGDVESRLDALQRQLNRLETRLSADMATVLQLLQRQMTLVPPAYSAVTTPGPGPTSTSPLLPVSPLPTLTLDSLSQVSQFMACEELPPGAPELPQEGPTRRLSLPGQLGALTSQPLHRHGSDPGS

[9] = biological target: Cytochrome P450 2C19 (Homo sapiens, UniProt P33261); test: Cytochrome panel assay with activity outcomes. Panel member name: p450-cyp2c19 Compounds with AC50 equal or less than 10 uM are considered active; type: functional; conditions: read-out: AC50
Chain of Cytochrome P450 2C19 (P33261 whole entry): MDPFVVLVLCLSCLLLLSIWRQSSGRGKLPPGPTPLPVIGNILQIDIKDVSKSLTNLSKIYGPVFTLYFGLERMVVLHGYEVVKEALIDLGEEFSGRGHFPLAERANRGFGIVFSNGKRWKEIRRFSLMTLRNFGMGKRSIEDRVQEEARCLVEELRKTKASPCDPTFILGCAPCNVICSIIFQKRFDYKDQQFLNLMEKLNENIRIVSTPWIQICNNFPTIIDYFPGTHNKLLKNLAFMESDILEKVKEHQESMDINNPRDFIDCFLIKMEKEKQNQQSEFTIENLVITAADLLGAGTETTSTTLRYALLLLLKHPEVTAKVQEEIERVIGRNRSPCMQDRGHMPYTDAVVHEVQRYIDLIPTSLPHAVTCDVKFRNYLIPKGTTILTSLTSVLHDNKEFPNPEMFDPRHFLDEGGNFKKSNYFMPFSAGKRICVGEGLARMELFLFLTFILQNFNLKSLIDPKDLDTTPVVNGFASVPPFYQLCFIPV

[10] = biological target: T3, Cytochrome P450 1A2 (Homo sapiens, UniProt P05177);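 note: PubChem cytochrome P450 panel assay, CYP1A2 panel member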
T3 sequence (P05177 whole entry): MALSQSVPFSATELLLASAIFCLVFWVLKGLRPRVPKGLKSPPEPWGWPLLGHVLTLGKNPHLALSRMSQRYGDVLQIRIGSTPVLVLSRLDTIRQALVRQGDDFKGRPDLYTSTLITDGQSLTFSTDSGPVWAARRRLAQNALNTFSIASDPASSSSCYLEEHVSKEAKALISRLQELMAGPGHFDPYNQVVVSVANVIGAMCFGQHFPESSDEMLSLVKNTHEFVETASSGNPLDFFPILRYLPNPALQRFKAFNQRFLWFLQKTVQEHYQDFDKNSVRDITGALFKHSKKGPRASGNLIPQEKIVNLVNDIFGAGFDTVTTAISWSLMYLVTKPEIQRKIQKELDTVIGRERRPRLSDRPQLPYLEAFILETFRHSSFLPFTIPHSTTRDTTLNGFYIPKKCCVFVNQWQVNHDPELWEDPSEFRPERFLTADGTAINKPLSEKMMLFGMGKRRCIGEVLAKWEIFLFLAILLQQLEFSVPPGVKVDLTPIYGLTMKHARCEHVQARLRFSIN

EC50 [1]: > 92.5 µM (inactive)
EC50 [2]: > 92.5 µM (inactive)
AC50 [3]: 21.1 µM (active)
EC50 [4]: > 92.5 µM (inactive)
SMILES: CN(C)CCCN(C(=O)c1ccc(Br)s1)c1nc2cc3c(cc2s1)OCCO3

SMILES: O=[N+]([O-])c1cccc(COc2cccc(CN3CCCCC3)c2)c1
AC50 [5]: 21.2 µM (active)

IC50 [6]: > 80 µM (inactive)
IC50 [7]: > 80 µM (inactive)
SMILES: Cc1ccccc1N1C(=O)c2ccccc2C1Nc1ccccc1 (stereo not given)

AC50 [9]: 1.58 µM (inconclusive)
AC50 [10]: 25.1 µM (inconclusive)
SMILES: COc1ccc2c(c1)c(CC(=O)N1CCOCC1)c(C)n2C(=O)c1ccc(Cl)cc1 [INDOMETHACIN MORPHOLINYLAMIDE]
AC50 [8]: 35.5 µM (inconclusive)
